Marks after values point to notes of the source that are not given here.
What was measured:
SK-hep1 liver tumors = experiment: Transplanted tumor in nude mice, intraperitoneal, SK-hep1; format: in vivo, BALB/c nude mice; conditions: 8 administrations
Method: (§1) BALB/c nude mice were used to inoculate Bel-7402, HepG-2 and SK-hep1 liver tumors according to the transplanted tumor research method under aseptic operation, and the cell density was not less than 5×10^6/ml, 0.2 ml was inoculated subcutaneously in the axilla of the right hind limb of each mouse. After the cells were inoculated, the cells were administered intraperitoneally (concentration: 5 mg/kg), once every 3 days, for a total of 8 administrations. After the 2nd day of drug withdrawal, all tumor-bearing mice were sacrificed, and their body weight, tumor weight and tumor inhibition were weighed.

HepG-2 liver tumors = experiment: Transplanted tumor in nude mice, intraperitoneal, HepG-2; format: in vivo, BALB/c nude mice; conditions: 8 administrations
Method: as §1

[1] = system: Cervical cancer Hela cells; experiment: In vitro antitumor activity test (MTT), Hela; format: cell-based; conditions: Homo sapiens, 24 h
Method: (§2) 13 human tumor cell lines were selected and cultured in RPMI-1640 medium (Gibco company) containing 10% inactivated fetal bovine serum, 100 U/ml penicillin and 100 U/ml streptomycin, cultured at 37° C. in a 5% CO2 incubator, and passaged once every 2 days. Using the MTT method, cells in the logarithmic growth phase were digested with 0.25% trypsin, centrifuged at 1000 r/min for 5 min, 8×10^3 cells were added to each well, and seeded in a 96-well plate, and 180 μl of cell suspension was added to each well, and a blank was set at the same time. The 96-well plate inoculated with tumor cells was placed in a carbon dioxide incubator for 24 hours, and then 20 μl of the drug was added, and an equal volume of culture medium was added to the blank control well, and the drug was divided into 8 concentrations from 50 μg/L to 0.4 μg/L. Three duplicate wells were set for each drug concentration and placed in an incubator for 24 h. 10 μl of MTT solution (5 mg/ml) was added to each well, and the culture was continued for 4 h. The supernatant was aspirated and discarded, 100 μl of dimethyl sulfoxide (DMSO) solution was added to each well, placed on a micro shaker for 10 min, and the absorbance (A value) was measured at a wavelength of 492 nm in a microplate reader, and the inhibition rate of the drug on tumor cells was calculated according to the following formula.
(§3) In this test, the IC50 value of the compound on tumor cells was calculated by the Origin software according to the inhibition rate of the compound. AC-201 in the following table was the abbreviation of PL-AC-201, and so on.

Lung cancer A549 cells = experiment: In vitro antitumor activity test (MTT), A549; format: cell-based; conditions: Homo sapiens, 24 h
Method: as §2, §3

[2] = system: Human osteosarcoma MG63 cells; experiment: In vitro antitumor activity test (MTT), MG63; format: cell-based; conditions: MG-63, 24 h
Method: as §2, §3

Bel-7402 liver tumors = experiment: Transplanted tumor in nude mice, intraperitoneal, Bel-7402; format: in vivo, BALB/c nude mice; conditions: 8 administrations
Method: as §1

Lung cancer H1299 cells = experiment: In vitro antitumor activity test (MTT), H1299; format: cell-based; conditions: Homo sapiens, NCI-H1299, 24 h
Method: as §2, §3

Lung cancer H292 cells = experiment: In vitro antitumor activity test (MTT), H292; format: cell-based; conditions: Homo sapiens, NCI-H292, 24 h
Method: as §2, §3

[3] = system: Liver cancer SK-hep1 cells; experiment: In vitro antitumor activity test (MTT), SK-hep1; format: cell-based; conditions: Homo sapiens, 24 h
Method: as §2, §3

[4] = system: Liver cancer Bel-7402 cells; experiment: In vitro antitumor activity test (MTT), Bel-7402; format: cell-based; conditions: Homo sapiens; Liver cancer Bel-7402, MTT, 24 h
Method: as §2, §3

[5] = system: 13 human tumor cell lines; experiment: Average IC50 over the tumor cell lines (MTT); format: cell-based; conditions: mean IC50 for each tumor, read-out: AverageIC50
Method: as §2, §3
The ratio of the hemolytic concentration MHC of the compound to the mean IC50 for each tumor was referred to as the therapeutic index (TI). The safety of the compound was evaluated by the therapeutic index. The higher the therapeutic index, the greater the safety range of the compound.

human red blood cells = experiment: Detection of hemolytic activity; format: cell-based
Method: 2-3 ml of human blood was drawn using an anticoagulant tube, thoroughly mixed, and kept at 4° C. for later use. 2 ml of blood was aspirated and added with 2-3 ml of PBS, followed by gently pipetting and centrifugation for 5 min at 1000 rpm, which was repeated 3-4 times. After the last centrifugation, PBS was aspirated, PBS was added to 40 ml (20 times the volume), and the number of blood cells at this time was 2×10^8 cells/ml. The red blood cell suspension was added to the plate (U-shaped 96-well plate), and 70 μl/well was used as a negative well. Only PBS was added to blank wells, 140 μl/well. 2 ml of the red blood cell suspension was centrifuged, PBS was discarded, 2 ml of pure water was added, mixed well, and 140 μl/well was used as a positive well. The diluted polypeptide solutions of different concentrations were added to the plate, 70 μl/well. Incubated at 37° C., 87 rpm, shaken for 2h, centrifuged for 5 min at 3000 rpm. The OD value measured by microplate reader: After centrifugation, 90 μl of supernatant was drawn and transferred to a flat-bottom 96-well plate, and the OD value at 578 nm was measured by microplate reader. ODtest-OD negative >0.1 (the first concentration that met the conditions was MHC).

[6] = system: Pancreatic cancer Bxpc-3 cells; experiment: In vitro antitumor activity test (MTT), Bxpc-3; format: cell-based; conditions: Homo sapiens; Pancreatic cancer Bxpc-3, MTT, 24 h
Method: as §2, §3

[7] = system: Liver cancer HepG-2 cells; experiment: In vitro antitumor activity test (MTT), HepG-2; format: cell-based; conditions: Homo sapiens, HepG2; Liver cancer HepG-2, MTT, 24 h
Method: as §2, §3

[8] = Acute toxicity test of single administration to ICR mice; conditions: mouse, in vivo, intravenous, single tail vein injection, observed 7 days
Method: ICR mice, 18-22 g, were raised in a common-grade animal room, fed with common feed, and ingested freely. The group distance and dose were determined after exploring the Dm and Dn of the compounds of the examples. Five concentrations of the compounds of the examples were formulated at the desired dose. The corresponding doses of drugs were injected into the tail vein according to body weight, and the blank control group was injected with normal saline. Immediately after administration, the performance and death of each animal were observed and recorded, and the possible toxic reaction or death of animals within 7 days after a single administration was observed and recorded.

Colon cancer HT29 cells = experiment: In vitro antitumor activity test (MTT), HT29; format: cell-based; conditions: Homo sapiens, HT-29, 24 h
Method: as §2, §3

Lung cancer H460 cells = experiment: In vitro antitumor activity test (MTT), H460; format: cell-based; conditions: Homo sapiens, NCI-H460, 24 h
Method: as §2, §3

[9] = system: Breast cancer MCF-7 cells; experiment: In vitro antitumor activity test (MTT), MCF-7; format: cell-based; conditions: Homo sapiens, MCF7; Breast cancer MCF-7, MTT, 24 h
Method: as §2, §3

Melanoma B16 cells = experiment: In vitro antitumor activity test (MTT), B16; format: cell-based; conditions: 24 h
Method: as §2, §3

[10] = SK-hep1, 5 mg/kg i.p. once every 3 days
[11] = HepG-2, 5 mg/kg i.p. once every 3 days
[12] = Bel-7402, 5 mg/kg i.p. once every 3 days

**Q.** For `COc1ccc2cc(C(C)C(=O)NC(Cc3ccc(-c4ccccc4)cc3)C(=O)NC3CC(C)(C)NC(C)(C)C3)ccc2c1` (centres unmarked) [PL-AC-202], which Tumor inhibition rate (SK-hep1 liver tumors; [10]) is on record?
**A.** ^ΔΔ71.7** %

**Q.** What about the Tumor weight (SK-hep1 liver tumors; [10]) of the same compound?
**A.** 317.1 ± 8.7 mg

**Q.** And the “Body Weight After administration” value (SK-hep1 liver tumors; SK-hep1 tumor-bearing BALB/c mice, 5 mg/kg i.p. once every 3 days)?
**A.** 24.9 ± 1.0 g

**Q.** What about the Tumor inhibition rate (HepG-2 liver tumors; [11]) of the same compound?
**A.** ^ΔΔ75.4** %

**Q.** What about the Tumor weight (HepG-2 liver tumors; [11]) of the same compound?
**A.** 406.2 ± 5.9 mg

**Q.** And the “Body Weight After administration” value (HepG-2 liver tumors; HepG-2 tumor-bearing BALB/c mice, 5 mg/kg i.p. once every 3 days)?
**A.** 22.8 ± 0.8 g

**Q.** What about the IC50 [1] of the same compound?
**A.** 16.1 nM

**Q.** And the IC50 (Lung cancer A549 cells)?
**A.** 23.2 nM

**Q.** And the IC50 [2]?
**A.** 24.1 nM

**Q.** And the Tumor inhibition rate (Bel-7402 liver tumors; [12])?
**A.** ^ΔΔ73.1** %

**Q.** And the Tumor weight (Bel-7402 liver tumors; [12])?
**A.** 213.3 ± 9.3 mg

**Q.** What about the “Body Weight After administration” value (Bel-7402 liver tumors; Bel-7402 tumor-bearing BALB/c mice, 5 mg/kg i.p. once every 3 days) of the same compound?
**A.** 22.9 ± 1.1 g

**Q.** And the IC50 (Lung cancer H1299 cells)?
**A.** 19.8 nM

**Q.** And the IC50 (Lung cancer H292 cells)?
**A.** 20.1 nM

**Q.** And the IC50 [3]?
**A.** 11.5 nM

**Q.** And the IC50 [4]?
**A.** 45.6 nM

**Q.** What about the IC50 [5] of the same compound?
**A.** 24 nM

**Q.** And the MHC (human red blood cells; hemolytic concentration, in nM)?
**A.** 5.1e+06 nM

**Q.** What about the MHC (human red blood cells; human red blood cells, 37° C., 2h, first concentration with ODtest-OD negative >0.1) of the same compound?
**A.** 3000 µg/mL

**Q.** And the IC50 [6]?
**A.** 35.1 nM

**Q.** What about the IC50 [7] of the same compound?
**A.** 15.8 nM

**Q.** What about the LD50 at 7 days [8] of the same compound?
**A.** 34.8 mg/kg

**Q.** And the IC50 (Colon cancer HT29 cells)?
**A.** 32.5 nM

**Q.** What about the IC50 (Lung cancer H460 cells) of the same compound?
**A.** 18.5 nM

**Q.** What about the IC50 [9] of the same compound?
**A.** 21.1 nM

**Q.** What about the IC50 (Melanoma B16 cells) of the same compound?
**A.** 28.4 nM

— patent US12552747B2, “Amino acid derivative containing non-steroidal anti-inflammatory drug structure and preparation method and application thereof” (priority 2020, dated 2026)
